In publication PMC6934184, “Selective DNA-PKcs inhibition extends the therapeutic index of localized radiotherapy and chemotherapy” (The Journal of Clinical Investigation, 2019):

Target: T1, MAP3K9 (MLK1) (Homo sapiens, UniProt P80192)
T1 construct: purchased Thermo Fisher Scientific (Life Technologies) SelectScreen
Test: SelectScreen Z'LYTE
Assay type: biochemical
Procedure, shortened: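 SelectScreen broad panel; activity (Z'LYTE, Adapta) plus binding formats. ATP: Km app for CSF1R Z'LYTE; 10 for CAMK1 Adapta. Readout = % per kinase.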

T1 sequence (P80192 whole entry): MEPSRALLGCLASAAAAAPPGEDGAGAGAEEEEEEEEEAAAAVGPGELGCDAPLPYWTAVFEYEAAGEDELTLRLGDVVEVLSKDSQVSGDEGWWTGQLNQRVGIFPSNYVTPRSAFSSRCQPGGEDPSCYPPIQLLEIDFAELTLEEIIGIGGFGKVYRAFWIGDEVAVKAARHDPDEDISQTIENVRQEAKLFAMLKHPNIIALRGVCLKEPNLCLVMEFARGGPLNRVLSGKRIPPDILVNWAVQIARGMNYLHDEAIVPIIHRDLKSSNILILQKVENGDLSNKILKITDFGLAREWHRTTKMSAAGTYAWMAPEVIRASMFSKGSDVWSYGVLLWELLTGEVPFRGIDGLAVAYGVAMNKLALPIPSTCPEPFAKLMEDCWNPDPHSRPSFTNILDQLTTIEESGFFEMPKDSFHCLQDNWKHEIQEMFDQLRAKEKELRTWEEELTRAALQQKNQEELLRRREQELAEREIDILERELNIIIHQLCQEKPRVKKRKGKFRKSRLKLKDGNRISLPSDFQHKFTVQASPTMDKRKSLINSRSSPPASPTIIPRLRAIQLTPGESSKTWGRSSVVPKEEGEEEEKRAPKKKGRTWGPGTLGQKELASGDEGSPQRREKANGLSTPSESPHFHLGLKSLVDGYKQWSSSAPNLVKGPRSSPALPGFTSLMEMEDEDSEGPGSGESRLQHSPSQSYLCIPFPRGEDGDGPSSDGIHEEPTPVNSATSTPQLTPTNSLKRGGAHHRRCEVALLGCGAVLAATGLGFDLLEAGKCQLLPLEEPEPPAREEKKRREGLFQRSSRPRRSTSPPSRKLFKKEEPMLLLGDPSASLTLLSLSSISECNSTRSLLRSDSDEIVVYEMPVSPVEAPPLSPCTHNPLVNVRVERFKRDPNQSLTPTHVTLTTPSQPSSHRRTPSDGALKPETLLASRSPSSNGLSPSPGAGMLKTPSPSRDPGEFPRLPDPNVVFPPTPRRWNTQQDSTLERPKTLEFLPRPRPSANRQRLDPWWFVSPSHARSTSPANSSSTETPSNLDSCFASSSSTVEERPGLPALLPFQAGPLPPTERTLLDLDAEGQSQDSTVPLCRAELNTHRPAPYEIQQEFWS

CN(C(=O)CN1CCOCC1)c1ccc2sc3c(-c4cccc5c(=O)cc(N6CC7CCC(C6)O7)oc45)cccc3c2c1 [NU5455]
inhibition at 1 µM: -0.5%
